Where a name gives a salt, the structure may show the parent alone. Blank lines part the entries; values can stand above or below the compound they belong to.
Experiments:
[1] = Example 1: weight loss in subjects given capsules, no change of diet or exercise; assay type: in vivo, human; set-up: average weight loss: unit not given here; conditions: 6 mg/kg per day calculated as octopamine base; for average weight loss: capsules, divided dosages
Method: Octopamine base, octopamine HCl, octopamine malate, and octopamine ethylcarbonate were prepared and given as capsules in divided dosages at 6 mg/kg per day calculated as octopamine base.

[2] = Metabolic potency, bioavailability and tolerability of octopamine salts versus base in users; assay type: in vivo, human
Excerpt: Finally, we have discovered that the base form of octopamine has significant bioavailability problems. […] There is thus great need for an improvement to this technology which allows octopamine to be a commercially viable option for metabolic enhancement.
We have found the octopamine salts of this invention are up to four times more efficient at affecting specific metabolic parameters than octopamine base.
The octopamine salts of this invention can be commercially used in various ways as metabolic enhancers. For instance, we have found usefulness with these compounds as weight loss agents. […] Even in high dosages, the user feels no noticeable negative effect on his general feeling or overall state of well-being. Furthermore, these octopamine salts specifically enhance the loss of adipose tissue while preserving lean body mass such as muscle tissue. A significant problem for anyone trying to lose unwanted adipose tissue is the concurrent loss of lean body mass. Lean body mass includes tissues such as muscle, kidney, liver, heart and bone. For a person to feel healthy and strong, these tissues must also be healthy and strong. […]
Human dosaging for the octopamine salts of this invention is most preferable in the range of 5-15 mg/kg of bodyweight calculated as base octopamine. […]

[3] = Stability of octopamine forms exposed to the atmosphere (in-house results); assay type: physicochemical; conditions: normal atmospheric conditions; according to our calculations
Excerpt: First, we have discovered that octopamine in the base form is very unstable and oxidizes rapidly when readily exposed to the atmosphere.
For instance, although the half-life of octopamine base is roughly 6 months, the half-life for octopamine salts of this invention such as octopamine HCl is at least 5 years according to our calculations. To be used commercially for metabolic enhancement, it is of extreme importance that the octopamine form used has a shelf life long enough so that the octopamine remains filly efficacious for at least one year and preferably two years.

[4] = Example 2: change in percent bodyfat and lean body mass, perceived energy and mental outlook in subjects; assay type: in vivo, human; conditions: for Change Percent Bodyfat / Change Percent Lean Body Mass: 6 mg/kg per day calculated as octopamine base; for Perceived Energy / Perceived Mental Outlook and Focus: subjective, scale of 1-10, 6 mg/kg per day
Method: Octopamine HCl was prepared and given as capsules in divided dosages at 6 mg/kg per day calculated as octopamine base. […] Subjective results are also shown regarding perceived energy and mental outlook and focus (scale of 1-10): […]

Compound: Octopamine ethylcarbonate
average weight loss ([1]; Week 1): 2
average weight loss ([1]; Week 4): 6
average weight loss ([1]; Week 8): 10

Compound: NCC(O)c1ccc(O)cc1 (stereo not drawn) [Octopamine base, Octopamine]
weight loss (result in words) ([1]; up to Week 8): neither the octopamine base nor the control resulted in appreciable or significant weight loss
average weight loss ([1]; Week 1, 6 mg/kg/day): 0
average weight loss ([1]; Week 4, 6 mg/kg/day): 1
average weight loss ([1]; Week 8, 6 mg/kg/day): 2
minimum effective dosage relative to the octopamine salts of the invention [2]: nearly four times

half-life [3]: ≥ 1830 days
Compound: NCC(O)c1ccc(O)cc1 (stereo not drawn) [Octopamine HCl]
average weight loss ([1]; Week 1, HCl, 6 mg/kg/day): 2
average weight loss ([1]; Week 4, HCl, 6 mg/kg/day): 6
average weight loss ([1]; Week 8, HCl, 6 mg/kg/day): 9
Change Percent Bodyfat ([4]; Week 1): −.5%
Change Percent Lean Body Mass ([4]; Week 1): 0%
Perceived Energy ([4]; Week 1): 6
Perceived Mental Outlook and Focus ([4]; Week 1): 7
Change Percent Bodyfat ([4]; Week 4): −2%
Change Percent Lean Body Mass ([4]; Week 4): +.3%
Perceived Energy ([4]; Week 4): 8
Perceived Mental Outlook and Focus ([4]; Week 4): 7
Change Percent Bodyfat ([4]; Week 8): −4%
Change Percent Lean Body Mass ([4]; Week 8): +1%
Perceived Energy ([4]; Week 8): 8
Perceived Mental Outlook and Focus ([4]; Week 8): 9

Compound: Octopamine malate
average weight loss ([1]; Week 1): 1
average weight loss ([1]; Week 4): 5
average weight loss ([1]; Week 8): 10

From patent US20040204497A1, “Metabolic enhancing properties of octopamine salts” (Creative Compounds, LLC, priority 2003, published 2004)
